pIC50: −log10 of the molar value.
Test system: ATF4 translation
Experiment: ATF4 Cell Based Assay (ATF4 reporter assay, NanoLuc luciferase fused to ATF4 5'-UTR, thapsigargin-induced stress)
Conditions: SH-SY5Y-ATF4-NanoLuc cells, 200 nM thapsigargin, overnight (typically 19 hours); average of a set of two or more experimental runs; read-out: average ATF4 pathway inhibitory activity IC50
Source text: The ATF4 reporter assay measures the effect of thapsigargin-induced cellular stress on ATF4 expression. For this reporter assay, a stable cell line was created by transfecting SH-SY5Y cells with a plasmid containing the NanoLuc® luciferase gene fused to the 5′-UTR of ATF4, under the control of the CMV promoter. The ATF4 5′-UTR contains two open reading frames which mediate the cellular stress-dependent translation of the reporter gene. Clones stably expressing the reporter construct were isolated and selected based on the luminescence response to thapsigargin and inhibition of this signal by test compounds. Briefly, SH-SY5Y-ATF4-NanoLuc cells were challenged with thapsigargin to determine the stress effect with or without test compounds. Cells were propagated in DMEM/F12 growth media containing 10% FBS (Invitrogen 10999-141) and 0.5 mg/mL geneticin (Corning 30-234-CR). Aliquots of cells were cryopreserved in dialyzed FBS containing 10% DMSO.
Test compounds were prepared in neat DMSO at a concentration of 10 mM. Assay plates were prepared by adding 250 nL of compound stock solution to test wells in a 384-well white tissue culture-treated plate (Greiner 781073). For inhibition curves, compounds were diluted using a three-fold serial dilution and tested at 11 concentrations (10 μM-0.17 nM).
Aliquots of frozen cells were thawed with a 37C water bath. The cells were washed using DMEM/F12 (1:1) (1×) (Gibco 11039-021). The cells were re-suspended in the DMEM/F12 and the suspension was counted. A final suspension of 7.5e5 cells/ml was prepared.
A volume of 20 uL of cell suspension was added to compound plates (15K cells/well). Cells were incubated for 1 hour at 37° C. A volume of 5 μL of 1 uM Thapsigargin solution was added to each well, resulting in a final concentration of 200 nM. Assay plates were then incubated at 37 C overnight, typically for 19 hours.
The measurement of luciferase produced by the ATF4 constructs was measured using Nano-Glo Luciferase Assay reagent, Promega N1150. (The components of the Promega kit are: Nano-Glo® Luciferase Assay Substrate, N113C, Nano-Glo® Luciferase Assay Buffer, N1128.) The buffer is brought to room temperature, and a solution of 50:1 buffer:substrate were prepared. The cell plates were equilibrated to room temperature. A volume of 20 microliters/well of the mixed Nano-Glo reagent were dispensed into assay and control wells. The plates were read on a Viewlux plate reader.

| Compound | pIC50 |
| --- | --- |
| O=C(COc1ccc(Cl)cc1)NC12CC(COC(=O)Nc3ccc(Cl)cc3)(C1)C2 [Example 1, (3-(2-(4-Chlorophenoxy)acetamido)bicyclo[1.1.1]pentan-1-yl)methyl (4-chlorophenyl)carbamate] | 7.60 |
| O=C(COc1ccc(Cl)c(F)c1)NC12CC(COC(=O)Nc3ccc(Cl)cc3)(C1)C2 [Example 3, (3-(2-(4-chloro-3-fluorophenoxy)acetamido)bicyclo[1.1.1]pentan-1-yl)methyl (4-chlorophenyl)carbamate] | 7.60 |
| O=C(COc1ccc(Cl)cc1)NC12CC(CNC(=O)Nc3ccc(Cl)cc3)(C1)C2 [Example 4, 2-(4-Chlorophenoxy)-N-(3-((3-(4-chlorophenyl)ureido)methyl)bicyclo[1.1.1]pentan-1-yl)acetamide] | 8.00 |
| O=C(COc1ccc(Cl)cc1)NC12CC(CNC(=S)Nc3ccc(Cl)cc3)(C1)C2 [Example 6a, 2-(4-chlorophenoxy)-N-(3-((3-(4-chlorophenyl)thioureido)methyl)bicyclo[1.1.1]pentan-1-yl)acetamide] | 6.90 |
| O=C(COc1ccc(Cl)c(C(F)(F)F)c1)NC12CC(COC(=O)Nc3ccc(Cl)c(F)c3)(C1)C2 [Example 8a, (3-(2-(4-chloro-3-(trifluoromethyl)phenoxy)acetamido)bicyclo[1.1.1]pentan-1-yl)methyl (4-chloro-3-fluorophenyl)carbamate] | 7.10 |
| O=C(COc1ccc(Cl)c(F)c1)NC12CC(COC(=O)Nc3ccc(Cl)c(Cl)c3)(C1)C2 [Example 10, (3-(2-(4-chloro-3-fluorophenoxy)acetamido)bicyclo [1.1.1]pentan-1-yl)methyl (3,4-dichlorophenyl) carbamate] | 7.60 |
| O=C(COc1ccc(Cl)c(Cl)c1)NC12CC(COC(=O)Nc3ccc(Cl)cc3)(C1)C2 [Example 12, (3-(2-(3,4-dichlorophenoxy)acetamido)bicyclo [1.1.1]pentan-1-yl)methyl (4-chlorophenyl) carbamate] | 7.49 |
| O=C(COc1ccc(F)cc1)NC12CC(COC(=O)Nc3ccc(Cl)c(F)c3)(C1)C2 [Example 14, (3-(2-(4-fluorophenoxy)acetamido)bicyclo [1.1.1]pentan-1-yl)methyl (4-chloro-3-fluorophenyl) carbamate] | 7.10 |
| O=C(COc1ccc(F)c(F)c1)NC12CC(COC(=O)Nc3ccc(F)c(F)c3)(C1)C2 [Example 16, (3-(2-(3,4-difluorophenoxy)acetamido)bicyclo [1.1.1]pentan-1-yl)methyl (3,4-difluorophenyl) carbamate] | 6.80 |
| O=C(CNc1ccc(Cl)cc1)NC12CC(COC(=O)Nc3ccc(Cl)c(F)c3)(C1)C2 [Example 18, (3-(2-((4-chlorophenyl)amino)acetamido)bicyclo [1.1.1]pentan-1-yl) methyl (4-chloro-3-fluorophenyl carbamate] | 5.90 |
| O=C(Nc1ccc(Cl)c(F)c1)OCC12CC(NC(=O)c3ccc4c(c3)OC(F)(F)O4)(C1)C2 [Example 19, (3-(2,2-difluorobenzo[d] [1,3]dioxole-5-carboxamido)bicyclo[1.1.1]pentan-1-yl)methyl (4-chloro-3-fluorophenyl) carbamate] | 6.80 |
| O=C(COc1ccc(Cl)cc1)NC12CC(CNC(=O)Nc3ccc(Cl)c(Cl)c3)(C1)C2 [Example 22, 2-(4-chlorophenoxy)-N-(3-((3-(3,4-dichlorophenyl)ureido)methyl)bicyclo[1.1.1]pentan-1-yl)acetamide] | 8.22 |
| O=C(COc1ccc(Cl)c(F)c1)NC12CC(CNC(=O)Nc3ccc(Cl)c(Cl)c3)(C1)C2 [Example 23, 2-(4-chloro-3-fluorophenoxy)-N-(3-((3-(3,4-dichlorophenyl)ureido)methyl)bicyclo[1.1.1]pentan-1-yl)acetamide] | 8.10 |
| O=C(COc1ccc(Cl)c(F)c1)NC12CCC(COC(=O)Nc3ccc(Cl)c(F)c3)(C1)C2 [Example 26, (4-(2-(4-chloro-3-fluorophenoxy)acetamido)bicyclo[2.1.1]hexan-1-yl)methyl (4-chloro-3-fluorophenyl) carbamate] | 7.10 |

From patent publication US20210253528A1, “CHEMICAL COMPOUNDS” (GLAXOSMITHKLINE INTELLECTUAL PROPERTY DEVELOPMENT LIMITED, priority 2018, published 2021)
